# Test results taken from ChEMBL document CHEMBL3826930, “Antitumor activities of biscoumarin and dihydropyran derivatives” (Bioorg Med Chem Lett, 2016).
# Assays:
# [1] = tested on: Mus musculus; assay: Acute toxicity in Kunming mouse assessed as physical/abnormal changes in eyes at 500 mg/kg, administered as single dose after 14 days; assay type: organism-based; settings: in vivo, 336 h
# [2] = Antiproliferative activity against human HuTu 80 cells after 48 hrs by MTT assay; assay type: functional, cell-based; settings: HuTu80, 48 h
# [3] = tested on: Mus musculus; assay: Acute toxicity in Kunming mouse assessed as physical/abnormal changes in skin at 500 mg/kg, administered as single dose after 14 days; assay type: organism-based; settings: in vivo, 336 h
# [4] = Antiproliferative activity against human PANC1 cells after 48 hrs by MTT assay; assay type: functional, cell-based; settings: PANC-1, 48 h
# [5] = tested on: Mus musculus; assay: Acute toxicity in Kunming mouse assessed as induction of salivation at 500 mg/kg, administered as single dose after 14 days; assay type: organism-based; settings: in vivo, 336 h
# [6] = tested on: Mus musculus; assay: Acute toxicity in Kunming mouse assessed as physical/abnormal changes in mucus membrane at 500 mg/kg, administered as single dose after 14 days; assay type: organism-based; settings: in vivo, 336 h
# [7] = tested on: Mus musculus; assay: Acute toxicity in Kunming mouse assessed as behavior pattern abnormality at 500 mg/kg, administered as single dose after 14 days; assay type: organism-based; settings: in vivo, 336 h
# [8] = tested on: HEK293; assay: Selectivity index, ratio of IC50 for HEK293 cells to IC50 for human PANC1 cells; assay type: functional
# [9] = (§1) Cytotoxicity against HUVEC assessed as reduction in cell survival after 48 hrs by MTT assay; assay type: cell-based, Homo sapiens; settings: human, HUVEC cells
# [10] = tested on: HUVEC; assay: as §1; assay type: cell-based, Homo sapiens; settings: Homo sapiens, HUVEC, 48 h
# [11] = tested on: PANC-1; assay: Selectivity index, ratio of IC50 for HUVEC to IC50 for human PANC1 cells
# [12] = tested on: Mus musculus; assay: Acute toxicity in Kunming mouse assessed as tremor induction at 500 mg/kg, administered as single dose after 14 days; assay type: organism-based; settings: in vivo, 336 h
# [13] = tested on: 4T1; assay: Antiproliferative activity against mouse 4T1 cells after 48 hrs by MTT assay; assay type: functional, cell-based; settings: 4T1, 48 h
# [14] = tested on: Mus musculus; assay: Acute toxicity in Kunming mouse assessed as structural abnormality in kidney at 500 mg/kg, administered as single dose after 14 days by hematoxylin and eosin staining based histological analysis; assay type: organism-based; settings: in vivo, 336 h
# [15] = tested on: 4T1; assay: Selectivity index, ratio of IC50 for HUVEC to IC50 for mouse 4T1 cells
# [16] = tested on: HuTu80; assay: Selectivity index, ratio of IC50 for HUVEC to IC50 for human HuTu 80 cells
# [17] = tested on: HEK293; assay: Selectivity index, ratio of IC50 for HEK293 cells to IC50 for human HuTu 80 cells; assay type: functional
# [18] = tested on: Mus musculus; assay: Acute toxicity in Kunming mouse assessed as survival at 500 mg/kg, administered as single dose measured on day 14 post dose; assay type: organism-based; settings: in vivo
# [19] = tested on: Mus musculus; assay: Acute toxicity in Kunming mouse assessed as structural abnormality in liver at 500 mg/kg, administered as single dose after 14 days by hematoxylin and eosin staining based histological analysis; assay type: organism-based; settings: in vivo, 336 h
# [20] = tested on: Mus musculus; assay: Acute toxicity in Kunming mouse assessed as physical/abnormal changes in fur at 500 mg/kg, administered as single dose after 14 days; assay type: organism-based; settings: in vivo, 336 h
# [21] = (§2) Cytotoxicity against HEK293 cells assessed as reduction in cell survival after 48 hrs by MTT assay; assay type: cell-based, Homo sapiens; settings: human, HEK293 cells
# [22] = tested on: HEK293; assay: as §2; assay type: cell-based, Homo sapiens; settings: Homo sapiens, HEK293, 48 h
# [23] = tested on: Mus musculus; assay: Acute toxicity in Kunming mouse assessed as sleep pattern abnormality at 500 mg/kg, administered as single dose after 14 days; assay type: organism-based; settings: in vivo, 336 h
# [24] = tested on: HEK293; assay: Selectivity index, ratio of IC50 for HEK293 cells to IC50 for mouse 4T1 cells; assay type: functional
compound,measurement,setting,value
COc1ccc(C(c2c(O)c3ccccc3oc2=O)c2c(O)c3ccccc3oc2=O)cc1,Activity,[1],Non-toxic
same,IC50,[2],53.8 µg/mL
same,IC90,[2],103 µg/mL
same,Activity,[3],Non-toxic
same,IC50,[4],42.5 µg/mL
same,IC90,[4],82.5 µg/mL
same,Activity,[5],Non-toxic
same,Activity,[6],Non-toxic
same,Activity,[7],Non-toxic
same,Ratio IC50,[8],3.9
same,IC90 at 48 h,[9],363 µg/mL
same,IC50,[10],199 µg/mL
same,Ratio IC50,[11],4.7
same,Activity,[12],Non-toxic
same,IC50,[13],85.7 µg/mL
same,IC90,[13],167 µg/mL
same,Activity,[14],Non-toxic
same,Ratio IC50,[15],2.3
same,Ratio IC50,[16],3.7
same,Ratio IC50,[17],3.1
same,Activity,[18],Non-toxic
same,Activity,[19],Non-toxic
same,Activity,[20],Non-toxic
same,IC90 at 48 h,[21],322 µg/mL
same,IC50,[22],165 µg/mL
same,Activity,[23],Non-toxic
same,Ratio IC50,[24],1.9
CC1(C)CC(=O)C2=C(C1)OC(N)=C(C#N)C2c1ccc(S(C)(=O)=O)cc1 (stereo not drawn),IC50,[2],> 300 µg/mL
same,IC90,[2],> 500 µg/mL
same,IC50,[4],> 300 µg/mL
same,IC90,[4],> 500 µg/mL
same,IC50,[13],> 300 µg/mL
same,IC90,[13],> 500 µg/mL
N#CC1=C(N)Oc2c(c(=O)oc3ccccc23)C1c1ccc(Br)cc1 (stereo not drawn),IC50,[2],> 300 µg/mL
same,IC90,[2],447 µg/mL
same,IC50,[4],> 300 µg/mL
same,IC90,[4],> 500 µg/mL
same,IC50,[13],> 300 µg/mL
same,IC90,[13],> 500 µg/mL
COc1cc(C2C(C#N)=C(N)OC3=C2C(=O)CC3)cc(OC)c1OC (stereo not drawn),IC50,[2],185 µg/mL
same,IC90,[2],360 µg/mL
same,IC50,[4],200 µg/mL
same,IC90,[4],391 µg/mL
same,IC50,[13],153 µg/mL
same,IC90,[13],365 µg/mL
CC(C)c1ccc(C2C(C#N)=C(N)Oc3c2c(=O)oc2ccccc32)cc1 (stereo not drawn),IC50,[2],238 µg/mL
same,IC90,[2],> 500 µg/mL
same,IC50,[4],256 µg/mL
same,IC90,[4],> 500 µg/mL
same,IC50,[13],> 300 µg/mL
same,IC90,[13],> 500 µg/mL
N#CC1=C(N)Oc2c(c(=O)oc3ccccc23)C1c1ccc(C#N)cc1 (stereo not drawn),IC50,[2],> 300 µg/mL
same,IC90,[2],> 500 µg/mL
same,IC50,[4],> 300 µg/mL
same,IC90,[4],> 500 µg/mL
same,IC50,[13],> 300 µg/mL
same,IC90,[13],> 500 µg/mL
N#CC1=C(N)OC2=C(C(=O)CC2)C1c1ccc(Cl)cc1Cl (stereo not drawn),IC50,[2],150 µg/mL
same,IC90,[2],302 µg/mL
same,IC50,[4],156 µg/mL
same,IC90,[4],325 µg/mL
same,IC50,[13],127 µg/mL
same,IC90,[13],307 µg/mL
N#Cc1ccc(C(c2c(O)c3ccccc3oc2=O)c2c(O)c3ccccc3oc2=O)cc1,Activity,[1],Non-toxic
same,IC50,[2],47.6 µg/mL
same,IC90,[2],98.3 µg/mL
same,Activity,[3],Non-toxic
same,IC50,[4],93.5 µg/mL
same,IC90,[4],202 µg/mL
same,Activity,[5],Non-toxic
same,Activity,[6],Non-toxic
same,Activity,[7],Non-toxic
same,Ratio IC50,[8],1.9
same,IC90 at 48 h,[9],322 µg/mL
same,IC50,[10],162 µg/mL
same,Ratio IC50,[11],1.73
same,Activity,[12],Non-toxic
same,IC50,[13],51.5 µg/mL
same,IC90,[13],102 µg/mL
same,Activity,[14],Non-toxic
same,Ratio IC50,[15],3.1
same,Ratio IC50,[16],3.4
same,Ratio IC50,[17],3.8
same,Activity,[18],Non-toxic
same,Activity,[19],Non-toxic
same,Activity,[20],Non-toxic
same,IC90 at 48 h,[21],343 µg/mL
same,IC50,[22],180 µg/mL
same,Activity,[23],Non-toxic
same,Ratio IC50,[24],3.5
COc1ccccc1C(c1c(O)c2ccccc2oc1=O)c1c(O)c2ccccc2oc1=O,Activity,[1],Non-toxic
same,IC50,[2],17.9 µg/mL
same,IC90,[2],110 µg/mL
same,Activity,[3],Non-toxic
same,IC50,[4],62.1 µg/mL
same,IC90,[4],110 µg/mL
same,Activity,[5],Non-toxic
same,Activity,[6],Non-toxic
same,Activity,[7],Non-toxic
same,Ratio IC50,[8],1.9
same,IC90 at 48 h,[9],269 µg/mL
same,IC50,[10],119 µg/mL
same,Ratio IC50,[11],1.9
same,Activity,[12],Non-toxic
same,IC50,[13],52.2 µg/mL
same,IC90,[13],133 µg/mL
same,Activity,[14],Non-toxic
same,Ratio IC50,[15],2.3
same,Ratio IC50,[16],6.7
same,Ratio IC50,[17],6.5
same,Activity,[18],Non-toxic
same,Activity,[19],Non-toxic
same,Activity,[20],Non-toxic
same,IC90 at 48 h,[21],282 µg/mL
same,IC50,[22],117 µg/mL
same,Activity,[23],Non-toxic
same,Ratio IC50,[24],2.2
CC1(C)CC(=O)C2=C(C1)OC(N)=C(C#N)C2c1cc(C(F)(F)F)cc(C(F)(F)F)c1 (stereo not drawn),IC50,[2],> 300 µg/mL
same,IC90,[2],> 500 µg/mL
same,IC50,[4],> 300 µg/mL
same,IC90,[4],> 500 µg/mL
same,IC50,[13],> 300 µg/mL
same,IC90,[13],> 500 µg/mL
CC1(C)CC(=O)C2=C(C1)OC(N)=C(C#N)C2c1cc(F)c(F)c(F)c1 (stereo not drawn),IC50,[2],297 µg/mL
same,IC90,[2],> 500 µg/mL
same,IC50,[4],283 µg/mL
same,IC90,[4],> 500 µg/mL
same,IC50,[13],241 µg/mL
same,IC90,[13],> 500 µg/mL
N#CC1=C(N)Oc2c(c(=O)oc3ccccc23)C1c1ccc([N+](=O)[O-])cc1 (stereo not drawn),IC50,[2],97 µg/mL
same,IC90,[2],187 µg/mL
same,IC50,[4],218 µg/mL
same,IC90,[4],348 µg/mL
same,IC50,[13],142 µg/mL
same,IC90,[13],289 µg/mL
COc1cccc(C2C(C#N)=C(N)OC3=C2C(=O)CC(C)(C)C3)c1 (stereo not drawn),IC50,[2],283 µg/mL
same,IC90,[2],> 500 µg/mL
same,IC50,[4],> 300 µg/mL
same,IC90,[4],> 500 µg/mL
same,IC50,[13],248 µg/mL
same,IC90,[13],> 500 µg/mL
CC(C)(C)c1ccc(C2C(C#N)=C(N)OC3=C2C(=O)CC3)cc1 (stereo not drawn),IC50,[2],103 µg/mL
same,IC90,[2],233 µg/mL
same,IC50,[4],219 µg/mL
same,IC90,[4],435 µg/mL
same,IC50,[13],117 µg/mL
same,IC90,[13],288 µg/mL
N#CC1=C(N)OC2=C(C(=O)CC2)C1c1cccc(C#N)c1 (stereo not drawn),IC50,[2],191 µg/mL
same,IC90,[2],381 µg/mL
same,IC50,[4],143 µg/mL
same,IC90,[4],317 µg/mL
same,IC50,[13],125 µg/mL
same,IC90,[13],299 µg/mL
